According to paper PMC10331946, “Characterization of Natural Compounds as Inhibitors of NS1 Endonuclease from Canine Parvovirus Type 2” (Journal of Microbiology and Biotechnology, 2023):

What was measured:
[1] = system: bird; conditions: free curcumin 30 mg/kg of feed, cited from earlier work
[2] = system: canine; set-up: method as in Campigotto et al., 34; conditions: diet containing curcumin; ref Campigotto et al., 34; cited from earlier work
[3] = target: T1, CPV-2 NS1 endonuclease (Canine parvovirus type 2, UniProt P12929); assay: FRET nicking assay, inhibition of recombinant CPV-2 NS1 endonuclease; type: biochemical, Canine parvovirus type 2 (CPV-2); conditions: for IC50: single compounds, 1.25 μg endonuclease, pH 7.0, 300 mM NaCl, 37°C, curcumin by 4PL, others by linear regression
T1 construct: hexahistidine (N); hexahistidine (C); made in house; host or cells: E. coli BL21 (De3) pLysS
T1 sequence (P12929 1-277): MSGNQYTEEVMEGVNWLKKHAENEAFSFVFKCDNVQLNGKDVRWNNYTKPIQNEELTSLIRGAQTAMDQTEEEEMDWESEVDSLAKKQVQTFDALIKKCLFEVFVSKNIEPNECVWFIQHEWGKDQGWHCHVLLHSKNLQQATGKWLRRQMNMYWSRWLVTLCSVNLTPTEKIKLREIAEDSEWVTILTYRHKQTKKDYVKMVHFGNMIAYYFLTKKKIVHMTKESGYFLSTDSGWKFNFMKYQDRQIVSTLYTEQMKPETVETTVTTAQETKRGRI
From the text: The fluorescence resonance energy transfer (FRET) substrate, which was composed of an oligonucleotide 5¢-TAA CCT TAC CAT AAG TA↓T CAA TCT GTC TTT-3¢ labeled with carboxyfluorescein (FAM) at the 5¢-terminus and black hole quencher 1 (BHQ1) at the 3¢-terminus as the energy transfer pair, was designed and synthesized by Bioneer Corp. (Korea) (Fig. S1).
cDNA of the CPV-2 NS1 endonuclease gene was synthesized after codon optimization (Genscript, USA) based on the N-terminal amino acid sequence (amino acids 1–277 of the DNA-binding region) of CPV-2 NS1 endonuclease (GenBank Accession No. AAV36764.1) (Fig. S2). The CPV-2 NS1 endonuclease gene was imbedded into the pET-28a (+) vector (Novagen, Germany) with hexahistidine tags at the N- and C-termini. The plasmids were transformed into E. coli BL21 (De3) pLysS (Invitrogen, USA) for expression. The transformed cells were cultured in 1 L of LB containing 30 μg/ml kanamycin at 37°C until the OD600 reached 0.6. Next, protein expression was induced with 1 mM isopropyl β-D-1-thiogalactopyranoside (IPTG) at 24°C for 20 h. Cells were harvested by centrifugation at 12,000 ×g for 25 min and 4°C. The pellet was resuspended in 50 ml 50 mM Tris-HCl buffer (pH 7.0) containing 300 mM NaCl and disrupted by sonication. After centrifugation at 12,000 ×g for 30 min and 4°C, the supernatant was applied to a Ni-NTA agarose column (Qiagen, Germany) and washed with 50 mM Tris-HCl buffer (pH 8.0) containing 300 mM NaCl and 20 mM imidazole. CPV-2 NS1 endonuclease was eluted with 50 mM Tris-HCl buffer (pH 8.0) containing 300 mM NaCl, and 250 mM imidazole, and dialyzed against 50 mM Tris-HCl (pH 7.0) containing 300 mM NaCl at 4°C overnight. The purified protein was stored at −20°C until required.
CPV-2 NS1 endonuclease activity was measured using an FRET substrate as described above. The reaction mixture was composed of 1.25 μg endonuclease and 0.6 μM FRET in 50 mM Tris-HCl buffer (pH 7.0). The reaction was run at 37°C with continuous monitoring of fluorescence for 10 min. Relative fluorescence units (RFUs) were measured using a SpectraMax M3 fluorescence plate reader (Molecular Devices, USA) with an excitation wavelength of 495 nm and an emission wavelength of 517 nm.
Thirty-one compounds, extracted sesame cake, turmeric, and yerba mate were tested for inhibitory effects against CPV-2 NS1 endonuclease. For screening, thirty-one compounds, turmeric, and yerba mate were dissolved in dimethyl sulfoxide (DMSO) to 5 mM or 10 mg/ml as stock solutions. Sesame cake extract (10 mg/ml) was solubilized in water. The reaction was initiated by adding 0.6 μM FRET substrate to a mixture of 50 μM compound and 1.25 μg endonuclease in 50 mM Tris-HCl buffer (pH 7.0) containing 300 mM NaCl. The reaction was run at 37°C for 3 min using a SpectraMax M3 fluorescence plate reader with an excitation wavelength of 495 nm and emission wavelength of 517 nm. Inhibitory activity was calculated using the following equation:
Inhibition activity (%) 100-[(S-S0)÷(C-C0)]×100
where C is RFU of the control (enzyme, buffer, and substrate) after a 3 min reaction, C0 is the RFU of the control at 0 min, S is the RFU of the sample (enzyme, buffer, inhibitor, and substrate) after 3 min, and S0 is the RFU of the sample at 0 min.
We determined the 50% inhibitory concentrations (IC50) of the six natural compounds, extracted turmeric, yerba mate, and sesame cake relative to the inhibitor-free control. The IC50 values of curcumin, and extracted sesame cake were calculated using a four-parameter logistic curve (4PL) using Prism v. 8 software (GraphPad Software Inc., USA). […] 8 software.

[4] = system: all animals; set-up: method as in PMID 42087962; conditions: cited from earlier work
[5] = system: beagle dogs; set-up: method as in Yang et al. (2022), 42; conditions: dietary supplementation at 2.5 g/kg, ref Yang et al. (2022), 42; cited from earlier work
[6] = ref Marchiori et al. (2019), 49

Row | SMILES | antioxidant capacity versus control group [1] | egg production versus controls [1, 6] | egg weight and mass versus controls [1, 6] | effect on canine health [2] | Inhibition (%) at 50 μM ([3]; 50 μM inhibitor, 0.6 μM FRET substrate, 1.25 μg enzyme, 50 mM Tris/HCl pH 7.0, 37°C, 3 min) [%] | inhibition at 50 µM ([3]; pH 7, read-out: Inhibition (%) at 50 μM, 50 μM inhibitor, 0.6 μM FRET substrate, 1.25 μg enzyme, 50 mM Tris/HCl pH 7.0, 37°C, 3 min) [%] | fold higher CPV-2 NS1 endonuclease inhibitory activity than demethoxycurcumin ([3]; ratio of IC50 values) [fold] | IC50 ([3]; 0.6 μM FRET substrate, 3 min) [nM] | safe proposed maximum level in complete feed [4] [mg/kg] | effect on environmental stress-induced symptoms [5]
1 | COc1cc(/C=C/C(=O)CC(=O)/C=C/c2ccc(O)c(OC)c2)ccc1O [Curcumin] | higher antioxidant capacity than the control group | higher | higher | enhanced canine health by stimulating the antioxidant system and erythropoiesis | 100 | > 95 | 2.17 | 290 ± 70 |  | 
2 | O=C(OCC1OC(OC(=O)c2cc(O)c(O)c(OC(=O)c3cc(O)c(O)c(O)c3)c2)C(OC(=O)c2cc(O)c(O)c(OC(=O)c3cc(O)c(O)c(O)c3)c2)C(OC(=O)c2cc(O)c(O)c(OC(=O)c3cc(O)c(O)c(O)c3)c2)C1OC(=O)c1cc(O)c(O)c(OC(=O)c2cc(O)c(O)c(O)c2)c1)c1cc(O)c(O)c(OC(=O)c2cc(O)c(O)c(O)c2)c1 (centres unmarked) [Tannic acid] |  |  |  |  |  |  |  | 1180 ± 100 | ≤ 15 | relieved environmental stress-induced diarrheal symptoms, inflammatory response, and oxidative stress
